From ChEMBL document CHEMBL5576149, “Discovery of Potent STT3A/B Inhibitors and Assessment of Their Multipathogen Antiviral Potential and Safety” (J Med Chem, 2024)
Converted amounts (≈) assume the structure as drawn. The source made the active and inactive calls. No cut-off for these calls is given here.

Columns and labels:
[1] = biological target: T1, Voltage-gated inwardly rectifying potassium channel KCNH2 (Homo sapiens, UniProt Q12809); experiment: Inhibition of hERG expressed in CHO cells by QPatch voltage clamp assay; type: toxicity, cell-based
T1 sequence (Q12809 whole entry): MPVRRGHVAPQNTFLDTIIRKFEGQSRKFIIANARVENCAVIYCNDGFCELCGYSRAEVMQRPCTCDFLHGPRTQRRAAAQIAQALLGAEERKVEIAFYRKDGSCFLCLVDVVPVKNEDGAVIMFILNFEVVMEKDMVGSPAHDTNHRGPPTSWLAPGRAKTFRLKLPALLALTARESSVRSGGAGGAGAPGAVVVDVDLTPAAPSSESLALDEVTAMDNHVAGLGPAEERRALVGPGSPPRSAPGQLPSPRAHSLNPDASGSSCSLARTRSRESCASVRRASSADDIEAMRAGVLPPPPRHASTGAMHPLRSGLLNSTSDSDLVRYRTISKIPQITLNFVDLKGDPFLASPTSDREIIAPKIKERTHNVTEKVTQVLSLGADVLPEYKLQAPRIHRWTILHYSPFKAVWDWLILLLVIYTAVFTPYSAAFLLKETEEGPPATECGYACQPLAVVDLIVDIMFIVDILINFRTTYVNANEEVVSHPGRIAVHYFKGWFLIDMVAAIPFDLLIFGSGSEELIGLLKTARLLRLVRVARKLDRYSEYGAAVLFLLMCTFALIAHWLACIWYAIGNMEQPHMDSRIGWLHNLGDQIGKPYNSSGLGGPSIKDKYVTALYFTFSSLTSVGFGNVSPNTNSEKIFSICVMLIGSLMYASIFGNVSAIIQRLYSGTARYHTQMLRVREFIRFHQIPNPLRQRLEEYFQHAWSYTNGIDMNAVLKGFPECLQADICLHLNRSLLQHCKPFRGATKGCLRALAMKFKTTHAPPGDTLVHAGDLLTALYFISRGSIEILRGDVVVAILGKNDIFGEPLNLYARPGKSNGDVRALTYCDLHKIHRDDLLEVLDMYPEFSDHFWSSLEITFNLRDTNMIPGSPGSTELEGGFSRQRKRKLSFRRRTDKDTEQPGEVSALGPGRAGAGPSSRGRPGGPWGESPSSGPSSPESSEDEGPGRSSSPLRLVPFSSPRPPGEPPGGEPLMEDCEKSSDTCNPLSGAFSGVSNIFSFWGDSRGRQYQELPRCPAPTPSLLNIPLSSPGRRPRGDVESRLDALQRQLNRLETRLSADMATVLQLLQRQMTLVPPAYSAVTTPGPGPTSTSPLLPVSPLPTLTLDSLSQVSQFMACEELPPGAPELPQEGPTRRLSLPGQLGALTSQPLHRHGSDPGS

H1-HeLa [2] = experiment: Inhibition of STT3A/STT3B in human H1-HeLa cells assessed as upregulation of […] gene expression incubated for 24 hrs; type: cell-based
H1-HeLa [3] = experiment: Inhibition of STT3A/STT3B in human H1-HeLa cells assessed as upregulation of DERL3 gene expression incubated for 24 hrs; type: cell-based
Human coronavirus 229E = experiment: Antiviral activity against Human coronavirus 229E infected in human MRC5 cells assessed as reduction in viral growth incubated for 68 hrs by CellTiter-Glo luminescence assay; type: functional, organism-based; settings: MRC5, 68 h
[4] = Cytotoxicity against human MRC5 cells by luminescence-based cell viability assay; type: toxicity
[5] = Cardiotoxicity in human iPSC-CM cells assessed as decrease in spike amplitude at 3 uM incubated for 1 hr by multi-electrode array analysis; type: toxicity, cell-based; design: scale not given: the % may be the effect or the level left
Human respirovirus 3 = experiment: Antiviral activity against Human parainfluenza virus 3 JS infected in human A549 cells assessed as reduction in viral proliferation incubated for 44 hrs by Hoechst dye based fluorescence analysis; type: functional, organism-based; settings: Human respirovirus 3, JS, A549, 44 h
[6] = Inhibition of STT3A/STT3B mediated N-linked glycosylation in STT3A knockout human H1-HeLa cells stably transduced with Halo3N-ER sequence by measuring effective concentration incubated for 24 hrs by Western blotting analysis; type: cell-based
[7] = Cardiotoxicity in human iPSC-CM cells assessed as decrease in beat period at 30 uM incubated for 1 hr by multi-electrode array analysis; type: toxicity, cell-based
[8] = Cardiotoxicity in human iPSC-CM cells assessed as increase in field potential duration at 370 nM incubated for 48 hr by multi-electrode array analysis; type: toxicity, cell-based; settings: 0.37 µM
H1-HeLa [9] = experiment: Inhibition of STT3A/STT3B in human H1-HeLa cells assessed as upregulation of MANF gene expression incubated for 24 hrs; type: cell-based
[10] = Neurotoxicity in human iPSC cells co-cultured with human astrocyte assessed as […] incubated for 1 hr by multi-electrode array analysis; type: toxicity, cell-based; settings: iPSC cells co-cultured with astrocytes
[11] = Unbound clearance in CD1 mouse at 2 mg/kg,po or 1 mg/kg,iv administrated upto 60 mins by LC-MS/MS analysis; type: ADME, organism-based; settings: in vivo, 1 h
[12] = biological target: Sodium channel protein type 5 subunit alpha (Homo sapiens, UniProt Q14524); experiment: Inhibition of Nav1.5 (unknown origin); type: toxicity
[13] = Unbound clearance in rat liver microsomes at 0.5 uM incubated upto 45 mins; type: ADME, Microsome; settings: 0.75 h
[14] = Cytotoxicity against human Hepatocyte cultured as 3D spheroids incubated for 14 days by CellTiter-Glo luminescence assay; type: toxicity, cell-based; settings: hepatocytes cultured as 3D spheroids
[15] = Neurotoxicity in human iPSC cells co-cultured with human astrocyte assessed as reduction in neuronal firing rate at 0.37 to 30 uM incubated for 1 hr by multi-electrode array analysis; type: toxicity, cell-based; settings: dose 0.37-30 µM
[16] = Bioavailability in CD1 mouse at 2 mg/kg,po or 1 mg/kg,iv administrated upto 60 mins by LC-MS/MS analysis; type: ADME, organism-based; settings: in vivo
[17] = biological target: Voltage-dependent L-type calcium channel subunit alpha-1C (Homo sapiens, UniProt Q13936); experiment: Inhibition of Cav1.2 (unknown origin) expressed in HEK cells by manual patch clamp assay; type: toxicity, cell-based
Sequence of Voltage-dependent L-type calcium channel subunit alpha-1C (Q13936 whole entry): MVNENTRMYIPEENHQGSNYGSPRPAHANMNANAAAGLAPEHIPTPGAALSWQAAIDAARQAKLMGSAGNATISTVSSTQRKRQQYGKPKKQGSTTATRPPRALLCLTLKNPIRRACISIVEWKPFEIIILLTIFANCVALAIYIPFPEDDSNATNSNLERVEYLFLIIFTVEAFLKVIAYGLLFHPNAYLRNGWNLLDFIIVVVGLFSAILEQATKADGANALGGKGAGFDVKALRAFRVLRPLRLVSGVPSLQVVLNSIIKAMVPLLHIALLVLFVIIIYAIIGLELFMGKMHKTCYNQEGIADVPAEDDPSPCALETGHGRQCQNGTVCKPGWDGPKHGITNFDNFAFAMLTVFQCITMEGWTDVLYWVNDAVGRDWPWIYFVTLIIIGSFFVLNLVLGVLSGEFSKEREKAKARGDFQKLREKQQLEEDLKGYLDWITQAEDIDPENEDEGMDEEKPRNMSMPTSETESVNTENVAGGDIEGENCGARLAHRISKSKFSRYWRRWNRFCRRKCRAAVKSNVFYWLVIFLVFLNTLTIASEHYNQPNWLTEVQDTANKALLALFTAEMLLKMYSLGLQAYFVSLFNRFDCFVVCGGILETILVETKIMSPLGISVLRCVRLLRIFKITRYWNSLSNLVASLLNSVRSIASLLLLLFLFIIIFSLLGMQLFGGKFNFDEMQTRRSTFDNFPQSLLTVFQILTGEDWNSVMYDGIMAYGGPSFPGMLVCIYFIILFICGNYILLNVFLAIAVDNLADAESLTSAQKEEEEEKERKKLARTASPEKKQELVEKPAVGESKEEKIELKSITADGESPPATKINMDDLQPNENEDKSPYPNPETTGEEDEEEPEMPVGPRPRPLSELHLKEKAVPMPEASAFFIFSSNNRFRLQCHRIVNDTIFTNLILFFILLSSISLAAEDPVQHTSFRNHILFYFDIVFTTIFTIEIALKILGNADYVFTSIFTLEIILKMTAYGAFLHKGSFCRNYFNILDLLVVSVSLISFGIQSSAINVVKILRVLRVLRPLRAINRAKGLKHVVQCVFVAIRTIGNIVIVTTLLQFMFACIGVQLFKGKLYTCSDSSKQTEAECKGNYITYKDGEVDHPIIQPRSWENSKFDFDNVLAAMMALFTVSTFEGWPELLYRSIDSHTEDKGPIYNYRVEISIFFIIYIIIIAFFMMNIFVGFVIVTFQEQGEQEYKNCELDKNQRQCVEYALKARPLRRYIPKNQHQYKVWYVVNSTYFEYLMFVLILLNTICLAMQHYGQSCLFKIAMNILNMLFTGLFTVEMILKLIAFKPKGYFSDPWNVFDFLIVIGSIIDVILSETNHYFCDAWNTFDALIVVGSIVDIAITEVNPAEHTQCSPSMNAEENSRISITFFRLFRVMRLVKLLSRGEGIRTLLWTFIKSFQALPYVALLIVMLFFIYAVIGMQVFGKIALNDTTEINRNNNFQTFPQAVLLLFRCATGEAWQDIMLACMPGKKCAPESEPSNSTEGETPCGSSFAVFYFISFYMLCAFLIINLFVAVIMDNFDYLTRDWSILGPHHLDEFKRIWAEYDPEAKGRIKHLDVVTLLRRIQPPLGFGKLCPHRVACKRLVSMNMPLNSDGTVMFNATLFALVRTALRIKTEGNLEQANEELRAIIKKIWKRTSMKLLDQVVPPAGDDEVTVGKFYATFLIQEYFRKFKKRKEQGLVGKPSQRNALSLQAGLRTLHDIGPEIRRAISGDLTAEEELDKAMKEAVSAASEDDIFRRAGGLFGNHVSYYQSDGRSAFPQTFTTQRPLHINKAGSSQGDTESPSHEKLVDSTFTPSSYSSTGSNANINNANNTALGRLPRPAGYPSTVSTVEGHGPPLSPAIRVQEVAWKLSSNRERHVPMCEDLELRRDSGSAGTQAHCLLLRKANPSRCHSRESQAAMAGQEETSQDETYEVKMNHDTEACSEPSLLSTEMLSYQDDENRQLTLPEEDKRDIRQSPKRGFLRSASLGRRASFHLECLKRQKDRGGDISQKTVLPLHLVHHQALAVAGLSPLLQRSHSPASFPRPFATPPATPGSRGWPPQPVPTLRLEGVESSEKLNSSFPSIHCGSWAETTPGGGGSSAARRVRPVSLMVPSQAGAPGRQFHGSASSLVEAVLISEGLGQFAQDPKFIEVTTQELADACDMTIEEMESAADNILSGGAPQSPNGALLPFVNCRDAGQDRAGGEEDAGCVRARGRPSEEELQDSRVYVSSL

H1-HeLa [18] = experiment: Inhibition of STT3A/STT3B in human H1-HeLa cells assessed as upregulation of SDF2L1 gene expression incubated for 24 hrs; type: cell-based
[19] = Inhibition of STT3A/STT3B mediated N-linked glycosylation in STT3B knockout human H1-HeLa cells stably transduced with Halo3N-ER sequence by measuring effective concentration incubated for 24 hrs by Western blotting analysis; type: cell-based
Influenza A virus [20] = experiment: Antiviral activity against influenza A virus H1N1 A/Puerto Rico/8/1934 infected in MDCK cells assessed as reduction in viral replication measured after 30 hrs of post-infection by RT-qPCR analysis relative to control; type: functional; design: scale not given: the % may be the effect or the level left
[21] = MRT in CD1 mouse at 2 mg/kg,po or 1 mg/kg,iv administrated upto 60 mins by LC-MS/MS analysis; type: ADME, organism-based; settings: in vivo
[22] = Chromatographic hydrophobicity index, logD of the compound at pH 7.4; type: physicochemical; settings: buffer
A549 [23] = experiment: Cytotoxicity against human A549 cells by fluorescent cell imaging assay; type: functional
SARS-CoV-2 = experiment: Antiviral activity against SARS-CoV-2 infected in human A549 cells assessed as reduction in viral growth incubated for 24 hrs by Nano-Glo reagent based analysis; type: functional, organism-based; settings: Severe acute respiratory syndrome coronavirus 2, A549, 24 h
[24] = Cardiotoxicity in human iPSC-CM cells assessed as decrease in spike amplitude at 370 nM incubated for 48 hr by multi-electrode array analysis; type: toxicity, cell-based; settings: 0.37 µM
[25] = Neurotoxicity in human iPSC cells co-cultured with human astrocyte assessed as inhibition of cell growth at 300 nM incubated for 48 hr by multi-electrode array analysis relative to control; type: toxicity, cell-based; settings: iPSC cells co-cultured with astrocytes
Influenza A virus [26] = experiment: Antiviral activity against influenza A virus H1N1 A/Puerto Rico/8/1934 infected in MDCK cells assessed as reduction in viral replication measured after 3 hrs of post-infection by RT-qPCR analysis relative to control; type: functional; design: scale not given: the % may be the effect or the level left
[27] = Cardiotoxicity in human iPSC-CM cells assessed as decrease in beat period at 1 uM incubated for 48 hr by multi-electrode array analysis; type: toxicity, cell-based
[28] = Cardiotoxicity in human iPSC-CM cells assessed as increase in field potential duration at 10 uM incubated for 1 hr by multi-electrode array analysis; type: toxicity, cell-based
[29] = Solubility of compound in FaSSIF; type: ADME
A549 [30] = experiment: Cytotoxicity against human A549 cells; type: functional
[31] = Inhibition of STT3A/STT3B mediated N-linked glycosylation in human H1-HeLa cells stably transduced with ERluc by measuring effective concentration of inhibition incubated for 18 hrs by One-Glo luciferase reporter assay; type: cell-based
[32] = Unbound clearance in human liver microsomes at 0.5 uM incubated upto 45 mins; type: ADME, Microsome; settings: 0.75 h
Influenza A virus [33] = experiment: Antiviral activity against influenza A virus H1N1 A/Puerto Rico/8/1934 infected in MDCK cells assessed as reduction in viral proliferation incubated for 24 hrs by FFU assay; type: functional, organism-based; settings: H1N1 A/Puerto Rico/8/1934, MDCK
[34] = Volume of distribution at steady state in CD1 mouse at 2 mg/kg,po or 1 mg/kg,iv administrated upto 60 mins by LC-MS/MS analysis; type: ADME, organism-based; settings: in vivo, 1 h
[35] = Cardiotoxicity in human iPSC-CM cells assessed as decrease in spike amplitude incubated for 48 hr by multi-electrode array analysis; type: toxicity, cell-based
[36] = Cardiotoxicity in human iPSC-CM cells assessed as increase in field potential duration incubated for 48 hr by multi-electrode array analysis; type: toxicity, cell-based
[37] = biological target: T1, Voltage-gated inwardly rectifying potassium channel KCNH2; experiment: Inhibition of HA-tagged hERG expressed in human U2OS cells assessed as reduction in ERG protein at 3 uM incubated for 24 hrs by Western blotting analysis; type: toxicity, cell-based

For `CN(C)S(=O)(=O)c1ccc(N2CC[C@H](O)C2)c(-c2cc3ccccc3[nH]2)c1`, the IC50 [1] was roughly 20 µM, the inhibition (H1-HeLa [2]) was “Active” and the inhibition (H1-HeLa [3]) was “Active”. For the same molecule, the EC50 (Human coronavirus 229E) was 0.03 µM, the CC50 [4] was 0.984 µM and the Activity [5] was 20%. For the same molecule, the EC50 (Human respirovirus 3) was 0.187 µM, the EC50 [6] was 0.063 µM and the Activity [7] was “Toxic”. For the same molecule, the Activity [8] was “Toxic”, the inhibition (H1-HeLa [9]) was “Active” and the IC50 at 1 hr [10] was 23 µM. It also gave a CL free [11] of 2268 mL/min/kg, an IC50 [12] of roughly 20 µM and a CL free [13] of 3761 mL/min/kg. For the same molecule, the IC50 at 14 days [14] was less than 1.2 µM, the Activity [15] was “Toxic” and the bioavailability [16] was 28%. For the same molecule, the IC50 [17] was greater than 100 µM, the inhibition (H1-HeLa [18]) was “Active” and the EC50 [19] was 0.041 µM. The Activity (Influenza A virus [20]) was 60%, the MRT [21] was 1 h and the chromatographic logD [22] was 4.8. For the same molecule, the CC50 (A549 [23]) was 0.831 µM, the EC50 (SARS-CoV-2) was 0.062 µM and the Activity [24] was “Toxic”. For the same molecule, the inhibition at 48 h, 0.3 µM [25] was 75%, the Activity (Influenza A virus [26]) was greater than 90% and the Activity [27] was “Toxic”. It also gave an Activity [28] of 20%, a solubility [29] of 53 µg/mL (≈ 137 µM) and a CC50 (A549 [30]) of 2.75 µM. For the same molecule, the EC50 [31] was 0.023 µM, the CL free [32] was 158 mL/min/kg and the EC50 (Influenza A virus [33]) was 0.297 µM. For the same molecule, the Vdss [34] was 4.3 L/kg.

With `C=C[C@H]1C[N@@]2CC[C@H]1C[C@@H]2[C@@H](O)c1ccnc2ccc(OC)cc12` [QUINIDINE] the Activity [35] was “Non-Toxic” and the Activity [36] was “Non-Toxic”.

In the case of `O=C([C@@H]1CCN1S(=O)(=O)c1ccc(N2CCC(F)(F)C2)c(-c2cc3ccccc3[nH]2)c1)N1CCOCC1`, the CL free [13] is reported as greater than 4854 mL/min/kg, the IC50 at 14 days [14] is reported as less than 1.2 µM and the “inhibition (INH)” value [37] is reported as “Active”. The chromatographic logD [22] was 5.3, the EC50 [31] was 0.005 µM and the CL free [32] was greater than 2851 mL/min/kg.
